The numbers were not newly measured in patent US10863739B2 (AgroFresh Inc., priority 2015, dated 2020), which cites them from elsewhere.

A value given as a limit tells only on which side of the number the result lay.

For this series the following is noted: gas.

For `CC1=CC1` [1-MCP, 1-Methylcyclopropene], the “flammable above a concentration” value is reported as > 13,300 ppm.
